Source: PubChem BioAssay (NCI)
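How tested: cells in 96-well plates exposed to compound for 48 hours at five concentrations. Here, GI50 denotes the concentration required for 50% inhibition of growth. TGI denotes the concentration required for complete inhibition of growth.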

Assays:
Assay in all cases: inhibition of tumour cell growth, NCI panel, 48 h
HS 578T breast = tested on: HS 578T breast
OVCAR-3 ovarian = tested on: OVCAR-3 ovarian
RPMI-8226 leukemia = tested on: RPMI-8226 leukemia
HOP-62 NSCLC = tested on: HOP-62 NSCLC
SK-OV-3 ovarian = tested on: SK-OV-3 ovarian
IGROV1 ovarian = tested on: IGROV1 ovarian
EKVX NSCLC = tested on: EKVX NSCLC
SNB-19 CNS = tested on: SNB-19 CNS
CAKI-1 renal = tested on: CAKI-1 renal
DU-145 prostate = tested on: DU-145 prostate

Structure (SMILES)	GI50 (HS 578T breast)	TGI (HS 578T breast)	GI50 (OVCAR-3 ovarian)	TGI (OVCAR-3 ovarian)	GI50 (RPMI-8226 leukemia)	TGI (RPMI-8226 leukemia)	GI50 (HOP-62 NSCLC)	TGI (HOP-62 NSCLC)	GI50 (SK-OV-3 ovarian)	TGI (SK-OV-3 ovarian)	GI50 (IGROV1 ovarian)	TGI (IGROV1 ovarian)	GI50 (EKVX NSCLC)	TGI (EKVX NSCLC)	GI50 (SNB-19 CNS)	TGI (SNB-19 CNS)	GI50 (CAKI-1 renal)	TGI (CAKI-1 renal)	GI50 (DU-145 prostate)	TGI (DU-145 prostate)
COc1ccc(/C=N/N=C(\[O-])c2ccncc2)cc1F.COc1ccc(/C=N\N=C(/[O-])c2ccncc2)cc1F.[Cu+2]	18 µM	60 µM	27.3 µM	82.9 µM	40.1 µM	> 100 µM	20.3 µM	41 µM	11.8 µM	24.1 µM	17.6 µM	40.2 µM	24.3 µM	76.3 µM	17.8 µM	35.7 µM	38.6 µM	> 100 µM	32 µM	> 100 µM
O=C(CC(=O)c1ccccc1)c1ccccc1	25.4 µM	> 100 µM	16.2 µM	53.5 µM	21.3 µM	> 100 µM	7.72 µM	39.6 µM	22.2 µM	> 100 µM	19.9 µM	> 100 µM	11.2 µM	38 µM	27 µM	> 100 µM	20.1 µM	66 µM	11.9 µM	65.3 µM
Cc1cc(O)c(C(c2ccncc2)c2c(O)cc(C)[nH]c2=O)c(=O)[nH]1	–	> 100 µM	–	> 100 µM	–	> 100 µM	–	> 100 µM	–	> 100 µM	–	> 100 µM	–	> 100 µM	–	> 100 µM	–	> 100 µM	–	> 100 µM
COc1c(N2CCN(Cn3c(O)c(N=NC(=O)c4ccncc4)c4cc(F)ccc43)C(C)C2)c(F)cc2c(=O)c(C(=O)O)cn(C3CC3)c12 (stereo not given)	0.294 µM	13.8 µM	10.5 µM	23.8 µM	15.1 µM	47.2 µM	21.7 µM	> 50 µM	39.8 µM	> 50 µM	42.1 µM	> 50 µM	35.2 µM	> 50 µM	32.5 µM	> 50 µM	> 50 µM	> 50 µM	10 µM	32.8 µM
CCCCCCNC(=O)Oc1ccc(/C(=C(\C)c2ccccc2)c2ccc(OCCN(CC)CC)cc2)cc1	2.92 µM	11.7 µM	4.73 µM	11.6 µM	2.32 µM	9.71 µM	6.51 µM	13.4 µM	8.33 µM	15.2 µM	3.11 µM	9.82 µM	6.02 µM	12.5 µM	4.89 µM	11.1 µM	2.74 µM	8.92 µM	7.45 µM	14.6 µM
O=c1c2c3c(sc2n2c(-c4ccc(Br)cc4)nnc2n1Cc1ccccc1)CCCC3	11.9 µM	36.6 µM	6.24 µM	20 µM	3.85 µM	25.4 µM	3.97 µM	17.6 µM	5.88 µM	18.8 µM	11.7 µM	26.9 µM	10.6 µM	23.4 µM	8.12 µM	20.7 µM	6.02 µM	22.4 µM	9.72 µM	22.9 µM
CCOC(=O)c1ccccc1-c1c2ccc(=[N+](C)C)cc-2oc2cc(N(C)C)ccc12	0.548 µM	51.2 µM	0.209 µM	13.4 µM	0.082 µM	4.96 µM	0.352 µM	10.3 µM	0.306 µM	1.74 µM	0.332 µM	16.1 µM	0.129 µM	> 38.9 µM	0.103 µM	16.7 µM	0.691 µM	4.64 µM	0.174 µM	24.1 µM
CCOC(=O)/C(C#N)=C/Nc1ccc(-c2nc3ccccc3[nH]2)cc1	24.3 µM	79.5 µM	20.4 µM	51.6 µM	19.7 µM	> 100 µM	31.1 µM	74.7 µM	25.6 µM	99.3 µM	22.7 µM	> 100 µM	34.4 µM	> 100 µM	36.5 µM	> 100 µM	26.6 µM	74.1 µM	66.6 µM	> 100 µM
C=CCCC(=O)N1C=CC(=O)[C@H](O)[C@@H]1/C=C/c1ccccc1	> 32.5 µM	> 32.5 µM	6.13 µM	> 32.5 µM	15.6 µM	> 32.5 µM	13.3 µM	> 32.5 µM	18.6 µM	> 32.5 µM	9.4 µM	> 32.5 µM	7.63 µM	> 32.5 µM	17.2 µM	> 32.5 µM	25.1 µM	> 32.5 µM	10.4 µM	> 32.5 µM
N=C(N)SCCc1ccccn1	–	> 100 µM	–	> 100 µM	–	> 100 µM	–	> 100 µM	–	> 100 µM	–	> 100 µM	–	> 100 µM	–	> 100 µM	–	> 100 µM	–	> 100 µM
